Assay results: patent US20260048051A1, “TREATMENT OF INFLAMMATORY BOWEL DISEASE” (Atomwise Inc., priority 2024, published 2026)
Like-named read-outs stand apart in the source and are kept apart here.

Assay: Plasma and tissue distribution in SD rats
Format: in vivo
Conditions: for Tissue/Plasma Ratio (AUCinf) / Kp: SD rat; for Kp: rat, oral, read-out: Tissue/Plasma Ratio (AUCinf); for Cmax / Tmax / half-life / AUC0-inf / AUC0-24 / AUC0-last: PO 10 mg/kg
From the text: The following Example describes the methods and data used to evaluate the tissue distribution of TYK2 inhibitors following the administration of either compound 1 or compound 2.
Thirty (30, 15/sex) SD rats supplied by Beijing Vital River Laboratory Animal Technology Co., Ltd. were used in this study. The animals were confirmed to be healthy before being assigned to the study. The room (s) was controlled and monitored for relative humidity (targeted mean range 40% to 70%) and temperature (targeted mean range 20° C. to 26° C.) with 15 or above air changes/hour. The room was on a 12-hour light/dark cycle except when interruptions were necessitated by study activities. Fresh drinking water (reverses osmosis) was available to all animals, ad libitum. Certified animal diet from certified vendor was available to all animals, ad libitum.
Animals were weighed prior to dose administration to calculate the actual dose volume. The body weights were in the range from 245.39 to 276.33 g for males and 182.29 to 215.69 g for females on the first dosing day. The animals in Groups 1 and 2 received a single oral gavage administration of test compound 1. Cage-side observations for the general health condition and appearance of the animal were performed before and after dosing and at each time point of sample collection. Unusual observations were recorded throughout the duration of the study.
The vehicle was 0.5% methyl cellulose (4000 cps) in water. The formulation was prepared according to the following steps. Group 1: 25.95 mg of compound 1 was weighed into a glass vial. 5000 μL of vehicle was added into the vial and stirred for 30 min at 1700 rpm to get a homogenous opaque suspension. 5000 μL of vehicle was added into the vial and stirred for 10 min at 1700 rpm to get a homogenous opaque suspension. 5000 μL+5000 μL+5000 μL+924 μL of vehicle was added into the vial and stirred for 10 min at 1700 rpm to get a homogenous opaque suspension. Group 2: 81.66 mg of compound 1 was weighed into a glass vial. 5000 μL of vehicle was added into the vial and stirred for 30 min at 1700 rpm to get a homogenous opaque suspension. 5000 μL of vehicle was added into the vial and stirred for 10 min at 1700 rpm to get a homogenous opaque suspension. 10 mL+10 mL+10 mL+20 mL+10 mL+10 mL+1580 μL of vehicle was added into the vial and stirred for 10 min at 1700 rpm to get a homogenous opaque suspension.
Blood (about 0.2 mL) was collected at each time point via jugular vein puncture from each study animal. The actual time for each sample collection was recorded. The acceptable deviations on sampling time were ±1 min for the time points pre-dose through 1 hour post-dose, and +5% of the nominal time for time points after 1 hour post-dose.
All blood samples were transferred into commercial tubes containing K2-EDTA. After blood was collected, the samples were placed on wet ice and processed for plasma within 60 minutes of collection by centrifugation at approximately 4° C., 3200×g for 10 minutes, and then quickly frozen over dry ice and kept at −60° C. or lower until LC-MS/MS analysis.
Following terminal blood sample collection, animals were conducted CO2 euthanasia, the chest and abdominal cavities were opened carefully lengthwise using scissors to expose the internal organs in preparation of tissue perfusion. A needle was used to puncture a small hole into the left ventricle of the heart, and then clamped with a hemostat. […] Fluid (cold 1×PBS) was infused until the liver pales (typically 2-3 minutes). Following perfusion, 14 kinds of tissues (spleen, bone marrow, adipose, brain, heart, kidney, liver, lung, skin, small intestine, large intestine, eye, gonads, and bladder) were collected from each animal, respectively.
Each tissue was weighed and homogenized on wet ice using homogenizing buffer (MeOH/15 mM PBS 1:2) at the ratio of 1:9 (1 g tissue with 9 mL buffer). The tissue homogenate was kept at −60° C. or lower until LC-MS/MS analysis. […]

[1] = Sprague-Dawley, epididymis and testis, male SD rat, Epididymis & Testis
[2] = Sprague-Dawley, male SD rat, Eyeball (left and right)
[3] = Sprague-Dawley, male SD rat, Fat
[4] = Sprague-Dawley, male SD rat, Heart
[5] = Sprague-Dawley, male SD rat, Kidney (left and right)
[6] = Sprague-Dawley, male SD rat, Large intestine
[7] = Sprague-Dawley, plasma, female SD rat
[8] = Sprague-Dawley, plasma, male SD rat
[9] = female SD rat, Eyeball (left and right)
[10] = female SD rat, Kidney (left and right)

C[C@@H](c1ccc(Nc2cc(Nc3ncccc3S(C)(=O)=O)ncn2)nc1)N1CC2(COC2)C1 [Compound 1, (S)—N^4-(5-(1-(2-oxa-6-azaspiro[3.3]heptan-6-yl)ethyl)pyridin-2-yl)-N^6-(3-(methylsulfonyl)pyridin-2-yl)pyrimidine-4,6-diamine]
Tissue/Plasma Ratio (AUCinf) (Kidney): 9.1 | Tissue/Plasma Ratio (AUCinf) (Large Intestine): 13 | Kp (Sprague-Dawley (SD), bone marrow / plasma, Bone Marrow): 4.3 | Cmax [1]: 350 ng/g | Tmax [1]: 8 h | Kp (Sprague-Dawley, adipose, Adipose): 0.59 | Kp (Sprague-Dawley, bladder, Bladder): 5 | Kp (Sprague-Dawley, eye, Eye): 0.8 | Kp (Sprague-Dawley, kidney, Kidney): ~9 | Kp (Sprague-Dawley, large intestine, Large Intestine): ~13 | Kp (Sprague-Dawley, liver, Liver): 7.6 | Kp (Sprague-Dawley, lung, Lung): 2 | Kp (Sprague-Dawley, skin, Skin): 3.2 | Kp (Sprague-Dawley, small intestine, Small Intestine): 21 | Kp (Sprague-Dawley, spleen, Spleen): 5.4 | Cmax [2]: 327 ng/g | Tmax [2]: 0.5 h | half-life [2]: 4.03 h | Cmax [3]: 464 ng/g | Tmax [3]: 0.5 h | half-life [3]: 3.08 h | Cmax [4]: 1260 ng/g | Tmax [4]: 0.5 h | half-life [4]: 2.31 h | Cmax [5]: 6140 ng/g | Tmax [5]: 0.5 h | half-life [5]: 3.79 h | Cmax [6]: 5180 ng/g | Tmax [6]: 8 h | Cmax [7]: 1180 ng/mL | Tmax [7]: 0.5 h | half-life [7]: 2.39 h | AUC0-inf (Sprague-Dawley, plasma, female SD rat, read-out: AUC0-inf): 3610 ng·h/mL | Cmax [8]: 1370 ng/mL | Tmax [8]: 0.667 h | half-life [8]: 2.75 h | AUC0-inf (Sprague-Dawley, plasma, male SD rat, read-out: AUC0-inf): 2920 ng·h/mL | AUC0-24 (female SD rat, Bladder): 17454 ng·h/g | AUC0-inf (female SD rat, Bladder): 17693 ng·h/g | AUC0-last (female SD rat, Bladder): 17454 ng·h/g | Cmax (female SD rat, Bladder): 4150 ng/g | Tmax (female SD rat, Bladder): 2 h | half-life (female SD rat, Bladder): 3.61 h | AUC0-24 (female SD rat, Bone Marrow): 17781 ng·h/g | AUC0-inf (female SD rat, Bone Marrow): 17791 ng·h/g | AUC0-last (female SD rat, Bone Marrow): 15823 ng·h/g | Cmax (female SD rat, Bone Marrow): 3840 ng/g | Tmax (female SD rat, Bone Marrow): 0.5 h | half-life (female SD rat, Bone Marrow): 2.52 h | AUC0-24 [9]: 3253 ng·h/g | AUC0-inf [9]: 3348 ng·h/g | AUC0-last [9]: 3253 ng·h/g | Cmax [9]: 449 ng/g | Tmax [9]: 2 h | half-life [9]: 4.51 h | AUC0-24 (female SD rat, Fat): 1725 ng·h/g | AUC0-last (female SD rat, Fat): 1725 ng·h/g | Cmax (female SD rat, Fat): 417 ng/g | Tmax (female SD rat, Fat): 2 h | AUC0-24 (female SD rat, Heart): 5608 ng·h/g | AUC0-inf (female SD rat, Heart): 5627 ng·h/g | AUC0-last (female SD rat, Heart): 4754 ng·h/g | Cmax (female SD rat, Heart): 1280 ng/g | Tmax (female SD rat, Heart): 0.5 h | half-life (female SD rat, Heart): 2.88 h | AUC0-24 [10]: 36323 ng·h/g | AUC0-inf [10]: 36373 ng·h/g | AUC0-last [10]: 36323 ng·h/g | Cmax [10]: 7800 ng/g | Tmax [10]: 0.5 h | half-life [10]: 2.46 h | AUC0-24 (female SD rat, Large intestine): 39634 ng·h/g | AUC0-last (female SD rat, Large intestine): 39634 ng·h/g | Cmax (female SD rat, Large intestine): 4670 ng/g | Tmax (female SD rat, Large intestine): 8 h | AUC0-24 (female SD rat, Liver): 29588 ng·h/g | AUC0-inf (female SD rat, Liver): 29655 ng·h/g | AUC0-last (female SD rat, Liver): 29588 ng·h/g | Cmax (female SD rat, Liver): 6310 ng/g | Tmax (female SD rat, Liver): 0.5 h | half-life (female SD rat, Liver): 2.67 h | AUC0-24 (female SD rat, Lung): 8773 ng·h/g | AUC0-last (female SD rat, Lung): 8773 ng·h/g | Cmax (female SD rat, Lung): 2180 ng/g | Tmax (female SD rat, Lung): 2 h | AUC0-24 (female SD rat, Ovary & Uterus): 5024 ng·h/g | AUC0-inf (female SD rat, Ovary & Uterus): 5028 ng·h/g | AUC0-last (female SD rat, Ovary & Uterus): 4408 ng·h/g | AUC0-24 (female SD rat, Skin): 3803 ng·h/g | AUC0-last (female SD rat, Skin): 3803 ng·h/g | Cmax (female SD rat, Skin): 893 ng/g | Tmax (female SD rat, Skin): 2 h | AUC0-24 (female SD rat, Small intestine): 59880 ng·h/g | AUC0-inf (female SD rat, Small intestine): 59932 ng·h/g | AUC0-last (female SD rat, Small intestine): 59880 ng·h/g | Cmax (female SD rat, Small intestine): 12300 ng/g | Tmax (female SD rat, Small intestine): 0.5 h | half-life (female SD rat, Small intestine): 2.3 h
